Assay [1] concerns the target T1, hCA XII (Homo sapiens, UniProt O43570).
T1 construct: made in house
The assay can be described thus: stopped-flow CO2 hydrase assay, hCA XII. It counts as biochemical. As to conditions: ratio of Ki values.

The next assay concerns the target T2, hCA II (Homo sapiens, UniProt P00918).
T2 construct: made in house
Also on record: method as in PMID 26121309. The following applies: values measured previously; cited from earlier work.

Assay [2] concerns the target T1, hCA XII. More on the design: method as in PMID 26121309. The following applies: values measured previously; cited from earlier work.
For another assay, the target named is T3, hCA I (Homo sapiens, UniProt P00915).
T3 construct: made in house
T3 sequence (P00915 whole entry): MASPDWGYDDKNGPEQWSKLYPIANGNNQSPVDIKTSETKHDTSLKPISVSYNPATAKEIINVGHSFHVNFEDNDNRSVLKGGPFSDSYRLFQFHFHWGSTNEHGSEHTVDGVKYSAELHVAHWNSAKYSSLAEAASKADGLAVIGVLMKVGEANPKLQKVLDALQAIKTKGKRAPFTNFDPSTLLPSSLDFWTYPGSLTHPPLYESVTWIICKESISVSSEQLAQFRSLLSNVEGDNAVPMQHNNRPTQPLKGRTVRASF
Also on record: method as in PMID 26121309. As to conditions: values measured previously; cited from earlier work.

The target in another assay is T4, hCA VII (Homo sapiens, UniProt P43166).
T4 construct: made in house
T4 sequence (P43166 whole entry): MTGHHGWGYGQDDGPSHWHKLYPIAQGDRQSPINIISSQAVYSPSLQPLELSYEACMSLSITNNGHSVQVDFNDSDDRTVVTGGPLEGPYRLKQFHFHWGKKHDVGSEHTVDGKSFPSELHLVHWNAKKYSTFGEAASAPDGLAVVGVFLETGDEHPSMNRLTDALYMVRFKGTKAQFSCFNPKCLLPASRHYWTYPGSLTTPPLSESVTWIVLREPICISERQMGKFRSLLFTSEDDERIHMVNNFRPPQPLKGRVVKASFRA
Also on record: method as in PMID 26121309. The following applies: values measured previously; cited from earlier work.

The next assay has as its target T5, hCA IV (Homo sapiens, UniProt P22748).
T5 construct: made in house
Also on record: method as in PMID 26121309. As to conditions: values measured previously; cited from earlier work.

Another assay deals with T6, hCA VA (Homo sapiens, UniProt P35218).
T6 construct: made in house
T6 sequence (P35218 39-305): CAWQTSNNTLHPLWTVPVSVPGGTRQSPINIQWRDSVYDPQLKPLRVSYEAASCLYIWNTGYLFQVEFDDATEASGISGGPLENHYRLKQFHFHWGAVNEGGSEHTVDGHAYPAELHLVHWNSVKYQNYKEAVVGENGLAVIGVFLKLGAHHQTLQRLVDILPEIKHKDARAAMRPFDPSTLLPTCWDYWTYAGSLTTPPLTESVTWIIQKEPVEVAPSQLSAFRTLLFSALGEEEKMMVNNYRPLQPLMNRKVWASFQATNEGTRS
More on the design: method as in PMID 26121309. As to conditions: values measured previously; cited from earlier work.

In assay [3] the target is T7, hCA IX (Homo sapiens, UniProt Q16790).
T7 construct: made in house
More on the design: method as in PMID 26121309. The following applies: values measured previously; cited from earlier work.

The test system of assay [4] is chronic myeloid leukemia cells. Also on record: method as in PMID 26121309. The following applies: cited from earlier work.
For assay [5], the target named is T7, hCA IX. Put plainly: stopped-flow CO2 hydrase assay, hCA IX. It counts as biochemical. As to conditions: ratio of Ki values.

T1 sequence (O43570 25-354): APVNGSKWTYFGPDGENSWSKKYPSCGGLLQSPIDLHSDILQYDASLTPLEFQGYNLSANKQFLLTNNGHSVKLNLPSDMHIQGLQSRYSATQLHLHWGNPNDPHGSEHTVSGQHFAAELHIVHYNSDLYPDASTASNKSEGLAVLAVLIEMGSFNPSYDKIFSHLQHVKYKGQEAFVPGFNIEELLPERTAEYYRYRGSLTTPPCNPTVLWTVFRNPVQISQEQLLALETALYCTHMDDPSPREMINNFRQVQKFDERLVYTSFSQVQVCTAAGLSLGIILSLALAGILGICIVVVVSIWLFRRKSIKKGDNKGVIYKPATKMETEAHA
T5 sequence (P22748 19-312): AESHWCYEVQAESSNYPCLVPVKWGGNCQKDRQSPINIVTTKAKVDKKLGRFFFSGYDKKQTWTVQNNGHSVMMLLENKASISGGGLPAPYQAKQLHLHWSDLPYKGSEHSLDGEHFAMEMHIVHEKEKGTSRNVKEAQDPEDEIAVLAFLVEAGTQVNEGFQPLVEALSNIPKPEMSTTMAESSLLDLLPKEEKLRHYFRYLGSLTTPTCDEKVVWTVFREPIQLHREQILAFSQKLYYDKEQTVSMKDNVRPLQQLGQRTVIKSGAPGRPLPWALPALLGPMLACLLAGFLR

As usually defined, the Ki is a measure of affinity in units of concentration, obtained from inhibition or displacement. As to `O=C(O)c1cc([N+](=O)[O-])c(NCCc2ccccc2)c([N+](=O)[O-])c1` [GV2-20], at hCA XII [1], the “Selectivity Index hCA II/hCA XII” value was determined as 7.01. Also, the Ki was 67.3 nM on hCA II; 9.6 nM at hCA XII [2]; 352 nM on hCA I; 8.7 nM at hCA VII; 7660 nM at hCA IV; 895 nM on hCA VA. Besides, the Ki at hCA IX [3] is 42.3 nM. Also, the antiproliferative effects result in assay [4] is listed as “antiproliferative effects”. Besides, the “Selectivity Index hCA II/hCA IX” value at hCA IX [5] is recorded as 1.59.

Source of the values: article PMC5943959, “Potent and Selective Carboxylic Acid Inhibitors of Tumor-Associated Carbonic Anhydrases IX and XII” (Molecules : A Journal of Synthetic Chemistry and Natural …, 2017).
